Values joined by “and” are separate entries in the source; they are usually repeats but may differ in a detail not shown here. Equal entries are not always repeated. Where two headings read alike, the source gives them in different places. Values belong to the compound of their own block, whether it stands above or below them.
What was measured:
AF647‐labeled hCD1d [1] = molecular target: T1, AF647‐labeled hCD1d (Homo sapiens, UniProt P15813+P61769); test: Microscale thermophoresis (MST) binding assay
T1 construct: TEV protease cleavage site ENLYFQS (C); BirA biotinylation site (C); His7 (C); made in house; host or cells: TurboCHO cells (GenScript)
Excerpt: (§1) The experimental limitations of ITF, such as low instrument sensitivity, high sample consumption, signal overlap with some ligands, and low throughput (Fossum et al., [2023]), made it necessary to employ alternative, complementary assays to quantify detergent binding to hCD1d. […] MST measures the diffusion of fluorescent molecules in response to microscopic temperature gradients (Seidel et al., [2013]). When a protein forms a complex with a ligand, changes in hydrodynamic properties, charge, or solvation energy alter its thermophoretic behavior, allowing detection of binding events. To perform MST experiments, Alexa Fluor 647 (AF647) dye was covalently attached to the primary amines of hCD1d via standard N‐hydroxysuccinimide coupling chemistry (Anderson et al., [1964]). The concentration of AF647‐hCD1d was kept constant, and the change in MST signal was measured as a function of increasing detergent concentration (Figure S3). Like ITF, any lipid or detergent that destabilizes CD1 can also alter the MST signal since unfolding changes the protein's Stokes radius and its thermophoretic behavior. […] This is why we compare MST results with ITF and nanoDSF, as described below.
(§2) For MST, hCD1d was fluorescently labeled with AF647‐NHS Ester (Invitrogen #A20006). Briefly, a 10 mM stock of AF647‐NHS was prepared in anhydrous DMSO. Then, 100 μL of 50 μM hCD1d in 1X PBS pH 7.4 was mixed with 1 μL of 10 mM AF647‐NHS (1:2 molar ratio of protein: dye). The mixture was allowed to react for 1 h in the dark at 25°C. Unreacted dye was removed from the protein–dye conjugate by performing size exclusion chromatography in the dark with a Superdex 200 Increase 10/300 GL column at a flow rate of 0.5 mL/min in SEC buffer (100 mM NaCl, 20 mM sodium phosphate, pH 7.2). The degree of labeling was determined by a NanoDrop spectrophotometer at A647 nm (dye absorbance) and A280 nm (hCD1d absorbance). The degree of labeling was determined from the ratio of dye concentration to protein concentration. The degree of labeling was ~75%.
(§3) MST experiments were performed using a Monolith NT.115 instrument (NanoTemper Technologies) using Monolith standard capillaries and the red excitation laser setup. The following settings were applied for all MST experiments: excitation power: 30%–50%, MST power: medium, before MST time: 3 s, MST on time (IR laser): 20 seconds, and after MST time: 1 s. MST measurements were analyzed using the Monolith Affinity Analysis software v2.3 and exported for plotting in GraphPad Prism v10.1. Three replicates were performed, and data are presented as the mean ± standard deviation (n = 3).
(§4) MST measurements of 100 nM AF647‐hCD1d were acquired in the absence and presence of detergents in 1X PBS pH 7.4 at 25°C. Prior to data acquisition, hCD1d and detergent or lipid samples were incubated at 37°C overnight (~12 h) to simulate in vitro and in vivo loading conditions. […] For 18:1 LPC experiments: MST data of 100 nM AF647‐hCD1d were acquired in the absence and presence of 18:1 LPC in 1X PBS pH 7.4 at 25°C.

[2] = approximate, ref Anatrace catalogue, cited from earlier work
CD1c = system: CD1c; design: method as in Mansour et al., 2016; details: ref Mansour et al., 2016; cited from earlier work
AF647‐labeled hCD1d [3] = molecular target: T2, AF647‐labeled hCD1d (Homo sapiens, UniProt P15813); test: Microscale thermophoresis (MST) binding assay; details: read-out: K D (MST) of lipid
T2 construct: TEV protease cleavage site ENLYFQS (C); BirA biotinylation site (C); His7 (C); made in house; host or cells: TurboCHO cells (GenScript)
Excerpt: as §1, §2, §3, §4

[4] = molecular target: T3, recombinant human CD1d ectodomain/β2m complex (hCD1d) (Homo sapiens, UniProt P15813); test: Intrinsic tryptophan fluorescence (ITF) binding assay; details: 18:1 LPC titration with 0.05% CHAPS; read-out: K D (ITF) of lipid
T3 construct: TEV protease cleavage site ENLYFQS (C); BirA biotinylation site (C); His7 (C); made in house; host or cells: TurboCHO cells (GenScript)
Description: For ITF assays, the concentration of hCD1d was kept constant, and intrinsic Trp fluorescence (excitation at 285 nm, emission at 335 nm) was measured as a function of increasing detergent concentration (Fossum et al., [2023]) (Figure S2). The change in relative fluorescence intensity (F − F 0/F 0) provides an indication of binding. […] This was due to limited detergent solubility and decreased hCD1d stability in the presence of a large excess of detergent (see below). […] SDS was the exception, for which Trp fluorescence of hCD1d decreased with added detergent. This could indicate a unique conformational change or destabilization of the protein.
ITF spectra were recorded from 300 to 500 nm using a Horiba FL3‐21 Fluorometer with the excitation wavelength of 285 nm and excitation/emission slits of 6.2 nm. Fluorescence spectra of 50 to 100 nM hCD1d were acquired in the absence and presence of detergents in 1X PBS pH 7.4 at 25°C. Prior to data acquisition, hCD1d and detergent or lipid samples were incubated at 37°C overnight (~12 h) to simulate in vitro and in vivo loading conditions. […] For 18:1 LPC experiments, fluorescence spectra of 100 nM hCD1d were acquired in the absence and presence of 18:1 LPC in 1X PBS pH 7.4 at 25°C. […] For all ITF experiments, the change in fluorescence signal (F − F 0/F 0) was determined at 335 nm. Three replicates were performed, and data are presented as the mean ± standard deviation (n = 3). K D values were fitted with non‐linear regression in GraphPad Prism v10.1.

hCD1d = hCD1d (Homo sapiens, UniProt P15813+P61769); test: Nano differential scanning fluorimetry (nanoDSF) thermal stability; type: binding; design: TEV protease cleavage site ENLYFQS (C); BirA biotinylation site (C); His7 (C); made in house; host or cells: TurboCHO cells (GenScript); details: absence vs presence of 200 μM 18:1 LPC; no detergent
Excerpt: We next sought to probe the ability of each detergent to influence the thermal stability of hCD1d. NanoDSF has been previously applied to measure lipid/detergent‐induced thermal stability changes in target proteins (Cecchetti et al., [2021]; Kotov et al., [2019]), but has not yet been applied to ligand binding to CD1. NanoDSF measures the ITF ratio (F 350 nm/F 330 nm) of proteins as a function of temperature to extract thermodynamic parameters. Given that ligand binding typically shifts the melting temperature of proteins, the effect of a ligand on protein stability can be approximated with the ΔT m value (the difference in T m with and without excess ligand) (Cecchetti et al., [2021]; Kotov et al., [2019]). We found all detergents tested to destabilize hCD1d, albeit to different degrees, with ΔT m values ranging from −0.8 to −14.2°C (Figures 4, S4, and Table 1).
Nano differential scanning fluorometry (nanoDSF) was performed using a Prometheus NT.48 (NanoTemper Technologies). Purified hCD1d at 1 μM in 1X PBS pH 7.4 was loaded into nanoDSF grade standard capillaries (NanoTemper Technologies) and exposed to temperatures ranging from 20 to 95°C with a thermal ramping rate of 1°C/min. Excitation power was set to 50%. The ratio of intrinsic fluorescence emission (F 350 nm/F 330 nm) was monitored. Melting temperatures (T m) were obtained from fitting the first derivative plots in the Prometheus NT.48 Software. The experiments were performed in triplicate, and data are presented as the mean ± standard deviation (n = 3).
For experiments with most detergents, prior to data acquisition, hCD1d and detergent or lipid samples were incubated at 37°C overnight (~12 h) to simulate in vitro and in vivo loading conditions. […] For 18:1 LPC experiments: nanoDSF spectra were acquired in the absence and presence of 18:1 LPC in 1X PBS pH 7.4 at 25°C.

T1 sequence (P61769+P15813 fused): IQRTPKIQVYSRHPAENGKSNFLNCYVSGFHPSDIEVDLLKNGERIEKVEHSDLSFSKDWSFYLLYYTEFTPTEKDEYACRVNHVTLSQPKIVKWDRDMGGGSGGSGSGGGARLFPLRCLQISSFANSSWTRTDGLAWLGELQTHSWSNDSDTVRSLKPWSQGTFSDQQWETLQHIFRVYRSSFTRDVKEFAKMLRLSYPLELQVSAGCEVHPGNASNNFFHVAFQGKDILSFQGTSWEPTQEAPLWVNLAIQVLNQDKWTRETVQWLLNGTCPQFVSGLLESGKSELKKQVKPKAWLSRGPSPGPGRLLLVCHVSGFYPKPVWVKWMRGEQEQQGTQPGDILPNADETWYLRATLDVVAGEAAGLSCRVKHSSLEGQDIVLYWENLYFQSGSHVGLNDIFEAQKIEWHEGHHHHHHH
T2 sequence (P15813 whole entry, looked up): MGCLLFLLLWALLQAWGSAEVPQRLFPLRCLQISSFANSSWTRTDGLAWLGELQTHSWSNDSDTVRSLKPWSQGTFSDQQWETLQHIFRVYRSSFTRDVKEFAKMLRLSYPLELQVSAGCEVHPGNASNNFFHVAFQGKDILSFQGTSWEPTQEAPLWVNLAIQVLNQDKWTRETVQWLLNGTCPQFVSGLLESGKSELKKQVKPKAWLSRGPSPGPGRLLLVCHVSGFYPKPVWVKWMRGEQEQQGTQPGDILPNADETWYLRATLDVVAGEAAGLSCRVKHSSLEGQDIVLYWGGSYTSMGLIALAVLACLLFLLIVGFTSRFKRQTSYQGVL
hCD1d, sequence (P61769+P15813 fused): as the sequence (P61769+P15813 fused) above
T3 sequence (P15813 whole entry, looked up, the tested form may be a part, one chain of several): as the sequence (P15813 whole entry, looked up) above

Fnorm (rep 1-3) (AF647‐labeled hCD1d [1]; 3.05176e-8 M detergent): 791.41 ‰ and 793.583 ‰ and 796.04 ‰
Fnorm (rep 1-3) (AF647‐labeled hCD1d [1]; 6.10352e-8 M detergent): 790.759 ‰ and 794.057 ‰ and 796.294 ‰
Fnorm (rep 1-3) (AF647‐labeled hCD1d [1]; 1.2207e-7 M detergent): 791.349 ‰ and 794.228 ‰ and 797.32 ‰
Fnorm (rep 1-3) (AF647‐labeled hCD1d [1]; 2.44141e-7 M detergent): 790.267 ‰ and 793.445 ‰ and 796.715 ‰
Fnorm (rep 1-3) (AF647‐labeled hCD1d [1]; 4.88281e-7 M detergent): 790.372 ‰ and 793.504 ‰ and 796.705 ‰
Fnorm (rep 1-3) (AF647‐labeled hCD1d [1]; 9.76563e-7 M detergent): 791.231 ‰ and 794.12 ‰ and 796.582 ‰
Fnorm (rep 1-3) (AF647‐labeled hCD1d [1]; 1.95313e-6 M detergent): 791.888 ‰ and 794.837 ‰ and 796.079 ‰
Fnorm (rep 1-3) (AF647‐labeled hCD1d [1]; 3.90625e-6 M detergent): 797.735 ‰ and 798.529 ‰ and 800.673 ‰
Fnorm (rep 1-3) (AF647‐labeled hCD1d [1]; 7.8125e-6 M detergent): 801.114 ‰ and 802.717 ‰ and 802.805 ‰
Fnorm (rep 1-3) (AF647‐labeled hCD1d [1]; 1.5625e-5 M detergent): 806.412 ‰ and 805.281 ‰ and 808.579 ‰
Fnorm (rep 1-3) (AF647‐labeled hCD1d [1]; 3.125e-5 M detergent): 808.925 ‰ and 810.844 ‰ and 811.355 ‰
Fnorm (rep 1-3) (AF647‐labeled hCD1d [1]; 6.25e-5 M detergent): 813.586 ‰ and 816.925 ‰ and 817.48 ‰
Fnorm (rep 1-3) (AF647‐labeled hCD1d [1]; 0.000125 M detergent): 826.07 ‰ and 832.084 ‰ and 828.584 ‰
Fnorm (rep 1-3) (AF647‐labeled hCD1d [1]; 0.00025 M detergent): 828.437 ‰ and 829.609 ‰ and 830.632 ‰
Fnorm (rep 1-3) (AF647‐labeled hCD1d [1]; 0.0005 M detergent): 829.715 ‰ and 832.769 ‰ and 836.286 ‰
Fnorm (rep 1-3) (AF647‐labeled hCD1d [1]; 0.001 M detergent, 100 nM AF647‐hCD1d): 833.009 ‰ and 835.212 ‰ and 836.54 ‰
Kd (AF647‐labeled hCD1d [1]; Figure 5B, detergent binding to hCD1d, read-out: MST - Kd (uM) average): 45.8 µM
Kd (AF647‐labeled hCD1d [1]; detergent with 100 nM AF647‐labeled hCD1d, 25°C, apparent, read-out: K D (MST)): 45.8 ± 7.9 µM
Compound: Triton X‐100
CMC [2]: 230 µM
CMC ([2]; weight/volume): 0.015%
stripping of lipid antigens from CD1c (in words) (CD1c): could efficiently strip lipid antigens away

Compound: CCCCCCCC/C=C\CCCCCCCC(=O)OC[C@@H](O)COP(=O)([O-])OCC[N+](C)(C)C [18:1 LPC, 1‐oleoyl‐2‐hydroxy‐sn‐glycero‐3‐phosphocholine]
Kd (AF647‐labeled hCD1d [3]; 18:1 LPC titration with 0.05% CHAPS): 5.6 ± 1.3 µM
Kd (AF647‐labeled hCD1d [3]; 18:1 LPC titration, absence of detergent, 100 nM AF647‐hCD1d, 25°C): ~7.7 µM and 7.7 µM
Kd [4]: 59.9 ± 19.4 µM
ΔT m (nanoDSF) of lipid (hCD1d): −8.1 ± 1.7 °C
